The source of these data is PMC9722955 (Frontiers in Pharmacology, 2022).

Series [1] addresses T1, recombinant human CYP46A1 (Homo sapiens, UniProt Q9Y6A2).
T1 construct: purchased Cypex (Dundee, Scotland, United Kingdom)
Nature of the series: Inhibition of CYP46A1-catalysed testosterone 16β-hydroxylation. Format: biochemical. Particulars: for residual activity of CYP46A1: 10 μM lignan; for residual activity of CYP46A1 / IC50: testosterone 10 μM as substrate; for α: mixed inhibition model; for Ki: testosterone 2–150 μM; for Type of inhibition: testosterone as substrate. As to the method: 16β-hydroxytestosterone formation catalyzed by CYP46A1 was conducted at conditions linear for the duration of incubation and protein concentration. […] After preliminary incubation at 37°C for 5 min, 10 μL NADPH (final concentration, 1 mM) was added to initiate the reaction for 10 min. The reaction was stopped by adding the same volume of acetonitrile containing 1 μM of the internal standard. The mixture was left on ice until it was centrifuged at 20,000×g for 20 min at 4°C. Aliquots of the supernatant were stored at −20°C until analysis. The possible inhibitory intensities of the sesame lignans were evaluated by quantifying the 16-OH-TST generated.
Testosterone 16β-hydroxylation reaction samples were injected into an API 3200 triple quadrupole mass spectrometer (Applied Biosystems, Concord, Ontario, Canada) and an Agilent HP1200 LC system (Agilent Technology Inc., CA, United States). The chromatographic separation was performed on a Hypersil ODS-BP column (150 mm × 2.1 mm, 5 μm; Dalian Elite Analytical Instruments Co. Ltd., China) at ambient temperature. IonSpray Voltage (IS): 4500 V; Temperature (TEM): 590°C; Ion Source Gas1 (GS1, N1): […]; Ion Source Gas2 (GS2, N2): […]; Curtain Gas (CUR): 30 psi; Collision Gas (CAD): 12 psi. MS/MS conditions for analyzed compounds are shown in Supplementary Table S1. Mobile phase A consisted of 0.1% formic acid in water; mobile phase B consisted of 0.1% formic acid in acetonitrile; the flow rate was 0.4 ml/min. The gradient elution program was 0–1 min, 95% A; 1–3 min, 95%–65% A; 3–5 min, 65%–35% A; 5–6 min, 35%–15% A; 6–8 min, 15% A; 15%–95% A, 8–8.1 min; 8.1–12 min, 95% A. 16β-hydroxytestosterone and Carbamazepine (internal standard) were monitored in the positive ion mode, and detected by fragment ions at m/z 305.2→97.2 and 237.1→194.2, respectively. LC-MS/MS data acquisition and integration were performed with Analyst 1.6.3 using the internal standard and peak-area ratios for calculation (linear regression, 1/x weighting).
The three equations and the inhibition constant were as described in our previously published methods ([Wu et al., 2017]). v=Vmax⋅S/Km⋅(1+I/Ki)+S (1) v=Vmax⋅S/(Km+S)⋅(1+I/Ki) (2) v=Vmax⋅S/Km⋅(1+I/Ki)+S⋅(1+I/α⋅Ki) (3) where v is the reaction velocity; S and I denote the substrate and inhibitor concentrations, respectively; K i represents the inhibition constant describing the affinity of the inhibitor for the enzyme; K m refers to the substrate concentration at half-maximal velocity (V max) of the reaction. The α value determines the degree of change in enzyme affinity for the substrate following the binding of the inhibitor. When α is less than 1, binding of an inhibitor […] substrate binding, and the mixed model is identical to non-competitive inhibition. When α is very large (α > 1), the binding of an inhibitor […] substrate binding, and the mixed model depicts competitive inhibition. The type of inhibition was determined by fitting the data to enzyme inhibition models. The goodness-of-fit of kinetic and inhibition models was assessed using R ^2 values and parameter S.D. estimates. Dixon and Lineweaver-Burk plots were also used to characterize the inhibition kinetics. Kinetic constants are reported as the mean ± S.D. of the parameter estimate.

Series [2] concerns CYP46A1. Nature of the series: Western blotting of CYP46A1 protein in h-CYP46A1-Neuro-2a cells. Type of series: cell-based, human. The following applies: 20 μM, 24 h. As for the experimental part:
MDCK-MDR1 cells and Neuro-2a-CYP46A1 cells were cultured in DMEM containing 10% (v/v) FBS, 1% nonessential amino acids, 100 U/mL penicillin G, and 100 μg/ml streptomycin, and incubated at 37°C in the presence of 5% CO2 and 95% humidity. The Neuro-2a-CYP46A1 cells were seeded into six-well plates at a density of 1 × 10^5 cells per well and cultured for 24 h. Drug intervention experiments were conducted by replacing the medium with a serum-free medium containing sesame ligands (20 μM) for 24 h.
The cells and tissues were harvested with lysis buffer and cleaved at 4°C for 20 min. All samples were centrifuged at 12,000 × g for 15 min at 4°C. The protein concentrations were quantified by BCA regent kits. Sodium dodecyl sulfate-polyacrylamide gel electrophoresis (SDS-PAGE) was used to separate the proteins, and they were then transferred to PVDF membranes. After incubation of the membranes with 5% non-fat milk for 2 h, they were then incubated with the primary antibodies at 4°C overnight. After washing three times, the membranes were incubated with the secondary antibody for 2 h. The protein bands were detected by a Tanon-5200 imaging system and the densities were analyzed by ImageJ software. The GAPDH antibody served as the internal control for sample loading.

In series [3] the test system is CYP46A1 activity (24S-hydroxycholesterol). Nature of the series: 24S-hydroxycholesterol levels in rat plasma and brain (ELISA) after sesamin. Format: in vivo. Particulars: sesamin 60 mg/kg intragastric once daily, 4 weeks. As for the experimental part: (§1) The experiments were reviewed and approved by the Experimental Animal Centre of Dalian Medical University. All rats were obtained from Liaoning Changsheng Biotechnology co., Ltd. All animal experiments complied with the ARRIVE guidelines and were carried out in accordance with the National Institutes of Health guide for the care and use of laboratory animals (NIH Publications No. […], revised 1978). Wistar rats were randomly divided into the administration group (n = 5) and the control group (n = 5). The rats were provided with laboratory standard animal feed and kept under a 12-h light cycle. Sesamin (60 mg/kg) was given by intragastric administration daily for 4 weeks; the control group was given an equivalent volume of olive oil. The rats were anesthetized with pentobarbital sodium (40 mg/kg) and blood samples and brain tissue samples were collected for further assays. The levels of 24S-hydroxycholesterol in rat plasma and brain tissues were measured by ELISA kits (Proteintech Group, Wuhan, China), according to the manufacturer’s instructions.

Series [4] relates to CYP46A1. Nature of the series: Western blotting of rat brain tissue, CYP46A1. Type of series: in vivo. The following applies: sesamin 60 mg/kg, 4 weeks, vs control. As for the experimental part: as §1, with “assays.” for “assays. The levels of 24S-hydroxycholesterol in rat plasma and brain tissues were measured by ELISA kits (Proteintech Group, Wuhan, China), according to the manufacturer’s instructions.”
(§2) The cells and tissues were harvested with lysis buffer and cleaved at 4°C for 20 min. All samples were centrifuged at 12,000 × g for 15 min at 4°C. The protein concentrations were quantified by BCA regent kits. Sodium dodecyl sulfate-polyacrylamide gel electrophoresis (SDS-PAGE) was used to separate the proteins, and they were then transferred to PVDF membranes. […] The protein bands were detected by a Tanon-5200 imaging system and the densities were analyzed by ImageJ software. […]

The test system of a further series is HMGCR. Nature of the series: Western blotting of rat brain tissue, HMGCR. The following applies: sesamin 60 mg/kg, 4 weeks, vs control. Format: in vivo. As to the method:
as §1, with “assays.” for “assays. The levels of 24S-hydroxycholesterol in rat plasma and brain tissues were measured by ELISA kits (Proteintech Group, Wuhan, China), according to the manufacturer’s instructions.”
as §2

Another series deals with NMDAR2A. Nature of the series: Western blotting of rat brain tissue, NMDAR2A. Type of series: in vivo. Particulars: sesamin 60 mg/kg, 4 weeks, vs control. As to the method: as §1, with “assays.” for “assays. The levels of 24S-hydroxycholesterol in rat plasma and brain tissues were measured by ELISA kits (Proteintech Group, Wuhan, China), according to the manufacturer’s instructions.”
as §2

The test system of a further series is NMDAR2B. Briefly: Western blotting of rat brain tissue, NMDAR2B. Format: in vivo. The following applies: sesamin 60 mg/kg, 4 weeks, vs control. As for the experimental part: as §1, with “assays.” for “assays. The levels of 24S-hydroxycholesterol in rat plasma and brain tissues were measured by ELISA kits (Proteintech Group, Wuhan, China), according to the manufacturer’s instructions.”
as §2

A further series has as its system CYP46A1 mRNA. Nature of the series: Quantitative real-time PCR of rat brain, CYP46A1 mRNA. The following applies: sesamin 60 mg/kg, 4 weeks, vs control. Type of series: in vivo. As for the experimental part: as §1, with “experimental procedure was performed as described previously ([Wen et al., 2018]). Total brain RNA and cDNA synthesis were meausured with an RNAiso Plus Reagent Kit and SYBR Premix Ex Taq Kit, respectively (Takara Biotechnology, Dalian, China). Quantitative real-time PCR was performed using SYBR Green PCR Master Mix and an ABI prim 7500 Sequence Detection System (Applied Biosystems, United States). Primers used for RT-qPCR are shown” for “levels of 24S-hydroxycholesterol”, “Supplementary Table S2.” for “rat plasma and brain tissues were measured by ELISA kits (Proteintech Group, Wuhan, China), according to the manufacturer’s instructions.”

The subject of a further series is HMGCR mRNA. Nature of the series: Quantitative real-time PCR of rat brain, HMGCR mRNA. Format: in vivo. Particulars: sesamin 60 mg/kg, 4 weeks, vs control. As for the experimental part: as §1, with “experimental procedure was performed as described previously ([Wen et al., 2018]). Total brain RNA and cDNA synthesis were meausured with an RNAiso Plus Reagent Kit and SYBR Premix Ex Taq Kit, respectively (Takara Biotechnology, Dalian, China). Quantitative real-time PCR was performed using SYBR Green PCR Master Mix and an ABI prim 7500 Sequence Detection System (Applied Biosystems, United States). Primers used for RT-qPCR are shown” for “levels of 24S-hydroxycholesterol”, “Supplementary Table S2.” for “rat plasma and brain tissues were measured by ELISA kits (Proteintech Group, Wuhan, China), according to the manufacturer’s instructions.”

For another series, the system named is CYP2C9. The following applies: read-out: value of competitive inhibition of 7-position hydroxylation of S-warfarin, ref Fujii et al., 2020; cited from earlier work.
Series [5] in a line: Membrane permeability assay across MDCK-MDR1 monolayer. Particulars: dog.
Protocol: (§3) To estimate the permeability of the sesamin lignans across the blood-brain barrier (BBB), a membrane permeability assay was conducted with an MDCK-MDR1 monolayer. The transport assays were performed by seeding MDCK-MDR1 cells on a tissue culture plate insert (BIOFIL®, PC membrane, 0.33 cm^2 surface area, 0.4 μm pore size) in 24-well companion plates for 5 days. The culture medium was changed once every 2–3 days. To confirm the confluency of the cell monolayer, the trans-epithelial electrical resistance (TEER) of each well was measured before the transport assay using a resistance meter (Millipore, Millicell® ERS-2, United States). […] The cell monolayer was gently washed with Hank’s Balanced Salt Solution (HBSS) at 37°C and the transwell chamber was pre-incubated for 30 min. […] After 120 min of incubation, a 50 μL sample was removed from the receiver compartment and uniformly mixed with 50 μL methanol. Then, it was centrifuged at 20,000 ×g at 4°C for 20 min. All available samples in the receiver compartments were injected into the HPLC system for analysis. The HPLC system comprised an Agilent MSD/MS system controller, two 1,260 series pumps, a 1,200 series autosampler, a 1,200 series variable wavelength detector, and an elite ODS-BP analysis column (4.6 × 200 mm, 5 μm). The mobile phase for sesame lignans was methanol/water (80/20, v/v), and the flow rate was 0.8 ml/min with a detector wavelength of 290 nm. […] Ultraviolet detection was performed at 230 nm. The permeability (P app) and efflux ratio (ER) were calculated as follows (Eqs. 4, 5) ([Grès et al., 1998]). Papp=dQ/dt⋅1/A⋅C0 (4) In Eq. (4), A denotes the area of mass transfer, C0 represents the donor concentration of compound in the upper medium, and dQ/dt is the rate of transmembrane transportation. […] ER=Papp, B→A/Papp, A→B (5)
(§4) In Eq. (5), P app, B→A denotes the basal to apical (B-A) transport rate, and P app, A→B is the apical to basal (A-B) transport rate.
The next series in a line: in vitro. Particulars: dog, MDCK-MDR1.

T1 sequence (Q9Y6A2 whole entry): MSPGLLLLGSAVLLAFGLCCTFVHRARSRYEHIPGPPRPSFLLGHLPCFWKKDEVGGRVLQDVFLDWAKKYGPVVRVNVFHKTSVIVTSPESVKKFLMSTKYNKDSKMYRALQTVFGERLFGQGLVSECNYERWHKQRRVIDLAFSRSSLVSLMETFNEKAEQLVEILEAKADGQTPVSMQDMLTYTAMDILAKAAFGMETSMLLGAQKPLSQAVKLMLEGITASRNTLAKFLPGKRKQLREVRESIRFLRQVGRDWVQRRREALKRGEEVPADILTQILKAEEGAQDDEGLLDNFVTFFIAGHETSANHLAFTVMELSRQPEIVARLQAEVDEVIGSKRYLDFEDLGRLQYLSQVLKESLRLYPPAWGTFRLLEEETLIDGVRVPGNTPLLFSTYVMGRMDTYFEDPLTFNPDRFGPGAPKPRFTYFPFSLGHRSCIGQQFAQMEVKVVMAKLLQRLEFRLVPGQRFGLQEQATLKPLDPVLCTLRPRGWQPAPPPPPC
Protocol for in vitro: as §3, §4

Consider `c1cc2c(cc1[C@H]1OC[C@H]3[C@@H]1CO[C@@H]3c1ccc3c(c1)OCO3)OCO2` [Sesamin, sesamin], for which, in series [1], the “residual activity of CYP46A1” value is listed as 36.2%, the α was found to be 6.491, the IC50 amounted to 6.02 µM and the Ki was found to be 6.87 ± 1.07 µM. Further, the Type of inhibition result in [1] is recorded as “mixed inhibition”. The Type of inhibition result in [1] (listed as sesamin) is reported as “mixed partial competitive inhibition”. The “reduction of CYP46A1 protein level vs control” value (shortened to “reduction … vs control”) with CYP46A1 [2] amounted to 28.1%. Besides, in [3], the “decrease of 24S-HC level in brain” value was determined as 29.3%, the “plasma concentration of 24S-HC” value came out at 45.747 ng/mL and the “reduction of 24S-HC level in plasma” value turned out to be 55.88%. Besides, the “reduction of CYP46A1 protein expression in rat brain tissue” value in the series on CYP46A1 [4] worked out at 27.3%. In addition, in the series on HMGCR, the “reduction of HMGCR protein expression in rat brain tissue” value stood at 31.6%. For the same molecule, the “reduction of NMDAR2A protein expression in rat brain tissue” value in the series on NMDAR2A was found to be 22.1%. In addition, the “reduction of NMDAR2B protein expression in rat brain tissue” value in the series on NMDAR2B is reported as 43.5%. Further, in the series on CYP46A1 mRNA, the “change of CYP46A1 mRNA expression in rat brain” value is “no significant changes”. For the same molecule, in the series on HMGCR mRNA, the “change of HMGCR mRNA expression in rat brain” value is “no significant changes”. In the series on CYP2C9, the Ki was 13.1 µM. For the same molecule, in [5], the Papp at 120 min, 20 μM stood at 6.75 ×10⁻⁶ cm/s.

Take `Oc1ccc2c(c1)OCO2` [Sesamol, sesamol]: in series [1], the “residual activity of CYP46A1” value turned out to be 59.4%, the IC50 came out at 21.3 ± 4.74 µM, the Ki is 18.7 ± 0.72 µM and the Type of inhibition result is “Non-competitive”. In addition, in the series with CYP46A1 [2], the “reduction … vs control” value is 26.1%. Further, the Papp at 120 min, 20 μM in series [5] turned out to be 35.3 ×10⁻⁶ cm/s.

Consider `c1cc2c(cc1O[C@H]1OC[C@H]3[C@@H]1CO[C@@H]3c1ccc3c(c1)OCO3)OCO2` [Sesamolin, sesamolin], for which, in series [1], the “residual activity of CYP46A1” value was 25.8%, the α is on record as 4.891, the IC50 stood at 3.34 ± 0.543 µM and the Ki was 4.02 ± 0.786 µM. The Type of inhibition entry in series [1] is “Mixed”. For the same molecule, the Type of inhibition entry in series [1] (listed as sesamolin) is listed as “mixed partial competitive inhibition”. Besides, the “reduction … vs control” value in the series on CYP46A1 [2] is given as 57.1%. In “in vitro”, the Papp at 120 min, 20 μM was determined as 20.5 ×10⁻⁶ cm/s.
